Like-named read-outs stand apart in the source and are kept apart here.
Assays:
in vivo = conditions: rat, po
strips of the ileum = test: 100% inhibition of peristaltic motility of ileum strips, Pharmacological Test 1(b); design: species or system guinea pig (female Hartley); conditions: for IC100: Cavia porcellus, read-out: IC100 (dose causing 100% inhibition of the motility of the strip)
Description: (b) Experiments on the inhibition of peristaltic motility of intestinal strips were carried out in the same manner as Experiment (a) except that guaiacol, creosol, cresol, phenol and xylenol, all of which are components of creosote, were respectively used in lieu of creosote.

Q: Which LD50 (in vivo) does the source give for `Cc1cccc(O)c1` [m-Cresol] here?
A: 2020 mg/kg

Q: What does the source list for cresol?
A: antispasmodic activity (inhibition of intestinal motility), in words (strips of the ileum): antispasmodic activity comparable to that of creosote; IC100 (dose causing 100% inhibition of the motility of the strip) (strips of the ileum; strips of the ileum): 0.0001 g/mL

Q: With `COc1ccccc1O` [Guaiacol, guaiacol] as the molecule, how does the LD50 (in vivo) read?
A: 725 mg/kg

Q: What about the “antispasmodic activity (inhibition of intestinal motility), in words” value (strips of the ileum) of the same molecule?
A: antispasmodic activity comparable to that of creosote

Q: What about the IC100 (strips of the ileum; strips of the ileum) of the same molecule?
A: 100 µg/mL

Q: With `Cc1ccccc1O` [o-Cresol] as the molecule, how does the LD50 (in vivo) read?
A: 1350 mg/kg

Q: For xylenol, which “antispasmodic activity (inhibition of intestinal motility), in words” value (strips of the ileum) is on record?
A: antispasmodic activity comparable to that of creosote

Q: And the “IC100 (dose causing 100% inhibition of the motility of the strip)” value (strips of the ileum; strips of the ileum)?
A: 0.0001 g/mL

Q: For `Oc1ccccc1` [Phenol, phenol], which LD50 (in vivo) is on record?
A: 530 mg/kg

Q: What about the “antispasmodic activity (inhibition of intestinal motility), in words” value (strips of the ileum) of the same molecule?
A: antispasmodic activity comparable to that of creosote

Q: What about the IC100 (strips of the ileum) of the same molecule?
A: 100 µg/mL

Q: Which LD50 (in vivo) does the source give for `Cc1ccc(O)cc1` [p-Cresol] here?
A: 1800 mg/kg

Q: Which “antispasmodic activity (inhibition of intestinal motility), in words” value (strips of the ileum) does the source give for `COc1cc(C)ccc1O` [Creosol, creosol] here?
A: antispasmodic activity comparable to that of creosote

Q: And the IC100 (strips of the ileum; strips of the ileum)?
A: 100 µg/mL

Reference: US5112872A, “Antispasmodic agent” (Taiko Pharmaceutical Co., Ltd., priority 1989, dated 1992)
